Our source for the Ki values is the Kinase Knowledgebase extract (Sharma et al. 2016).

Sequence of PIK3CG (human) (P48736 whole entry, looked up): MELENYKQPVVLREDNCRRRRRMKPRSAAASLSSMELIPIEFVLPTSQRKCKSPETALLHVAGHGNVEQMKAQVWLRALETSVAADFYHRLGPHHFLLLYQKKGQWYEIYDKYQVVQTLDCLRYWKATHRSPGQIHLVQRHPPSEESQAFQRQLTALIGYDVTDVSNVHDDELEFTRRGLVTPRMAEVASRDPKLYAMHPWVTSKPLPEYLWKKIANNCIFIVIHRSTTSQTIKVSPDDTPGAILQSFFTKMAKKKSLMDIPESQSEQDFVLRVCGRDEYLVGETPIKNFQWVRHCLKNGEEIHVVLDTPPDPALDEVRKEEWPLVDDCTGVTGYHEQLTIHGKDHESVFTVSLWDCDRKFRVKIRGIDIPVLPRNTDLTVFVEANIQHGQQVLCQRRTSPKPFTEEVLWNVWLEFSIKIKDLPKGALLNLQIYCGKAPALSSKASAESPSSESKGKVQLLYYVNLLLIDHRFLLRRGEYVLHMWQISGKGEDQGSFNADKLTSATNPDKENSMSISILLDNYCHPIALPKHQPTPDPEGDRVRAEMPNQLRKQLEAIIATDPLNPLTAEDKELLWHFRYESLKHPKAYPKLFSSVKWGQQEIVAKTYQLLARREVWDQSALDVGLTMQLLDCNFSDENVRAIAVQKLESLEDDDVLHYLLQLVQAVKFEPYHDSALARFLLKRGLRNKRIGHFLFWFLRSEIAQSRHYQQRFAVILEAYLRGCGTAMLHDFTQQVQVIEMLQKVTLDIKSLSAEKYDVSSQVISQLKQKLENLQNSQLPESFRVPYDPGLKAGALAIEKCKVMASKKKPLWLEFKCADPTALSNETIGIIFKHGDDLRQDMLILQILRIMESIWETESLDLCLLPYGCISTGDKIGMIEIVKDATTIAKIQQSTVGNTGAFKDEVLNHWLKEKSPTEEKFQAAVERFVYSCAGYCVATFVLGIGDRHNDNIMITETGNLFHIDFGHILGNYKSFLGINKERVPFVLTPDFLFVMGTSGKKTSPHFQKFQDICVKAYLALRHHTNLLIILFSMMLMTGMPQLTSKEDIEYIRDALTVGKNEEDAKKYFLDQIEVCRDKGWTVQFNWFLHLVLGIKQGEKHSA

This test addresses PIK3CG (human) (UniProt P48736). The experiment in a line: Inhibition of PIK3CG Kinase Activity.
In turn, `COc1cc(-c2ccc3c(n2)CN(c2cnn(Cc4ccc(CO)cc4)c2)C3=O)cnc1OC` had a Ki below 100 nM.

Regarding `Cc1cc(-c2cnc(C)c(OCC(F)F)c2)nc2c1C(=O)N(c1cnn(CC(F)F)c1)C2C` (stereo unspecified), the Ki was below 100 nM.

Turning to `COc1cc(-c2ccc3c(n2)CN(c2ccc(N4CCC(CO)CC4)nc2)C3=O)cnc1OC`, the Ki was below 100 nM.

In turn, `CCOc1ncc(-c2cc(C)c3c(n2)C2(CCCO2)N(c2cnn(CC(F)(F)F)c2)C3=O)cc1OC` (stereo unspecified) gave a Ki below 100 nM.

In turn, `COc1cncc(-c2cc(C)c3c(n2)CN(c2cnn(C[C@H](C)F)c2)C3=O)c1` gave a Ki below 100 nM.

With `Cc1cc(-c2cncc(C(=O)O)c2)nc2c1C(=O)N(c1ccn([C@H]3CCOC3)n1)C2`, the Ki is below 100 nM.

For `COc1cc(-c2ccc3c(n2)CN(c2ccn(C[C@H](C)O)n2)C3=O)cnc1OC`, the Ki was below 100 nM.

Compound `Cc1cc(-c2cncc(S(=O)(=O)C(C)C)c2)nc2c1C(=O)N(c1cnn(CC(F)(F)F)c1)C2(C)C` gave a Ki below 100 nM.

Compound `COc1cncc(-c2cc(C)c3c(n2)[C@H](OC)N(c2cnn(CC(F)(F)F)c2)C3=O)c1` displayed a Ki below 100 nM.

As to `Cc1cc(-c2cncc(NS(=O)(=O)c3ccc(F)cc3F)c2)nc2c1C(=O)N(c1cnn(CC(F)(F)F)c1)C2(C)C`, the Ki was below 100 nM.

As for `COCCOCCOc1ncc(-c2cc(C)c3c(n2)CN(c2cnn(CC(F)(F)F)c2)C3=O)cc1OC`, the Ki was below 100 nM.

As to `COc1cc(-c2ccc3c(n2)C(Cc2ccccc2)N(c2cnn(CC(F)(F)F)c2)C3=O)cnc1OC` (stereo unspecified), the Ki is below 100 nM.

`CCOCCCOc1cc(-c2cc(C)c3c(n2)CN(c2cnn(CC(F)(F)F)c2)C3=O)cnc1OC` registered a Ki below 100 nM.

In turn, `Cc1cc(-c2cncc(OC(F)F)c2)nc2c1C(=O)N(c1ccnc(F)c1)C2C` (stereo unspecified) yielded a Ki below 100 nM.

`COc1cc(-c2cc(C)c3c(n2)CN(c2ccnc(OCC(F)F)c2)C3=O)cnc1OC` had a Ki below 100 nM.

`COc1cc(-c2cc(C)c3c(n2)CN(c2ccnc(C#N)c2)C3=O)cnc1OC` came in with a Ki below 100 nM.

For `COCCOCn1cc(N2Cc3nc(-c4cnc(OC)c(OC)c4)ccc3C2=O)cn1`, the Ki was below 100 nM.

As for `Cc1cc(-c2cccnc2NC(=O)C(C)(C)C)nc2c1C(=O)N(c1cnn(CC(F)(F)F)c1)C2`, the Ki was below 100 nM.

`COc1cc(-c2ccc3c(n2)C(C)N(c2ccn(CC(C)(C)F)n2)C3=O)cnc1OC` (stereo unspecified) returned a Ki below 100 nM.

As for `COc1cc(-c2ccc3c(n2)CN(c2cnn(C4CC4)c2)C3=O)cnc1OC`, the Ki is below 100 nM.

On to `CCOc1ncc(-c2cc(C)c3c(n2)[C@@]2(CCCO2)N(c2ccn(CC)n2)C3=O)cc1OC`, for which the Ki is 100 to 490 nM.

In turn, `COc1cc(-c2cc(C)c3c(n2)CN(c2cncc(CO)c2)C3=O)cnc1OC` returned a Ki below 100 nM.

For the compound `CCNC(=O)Cn1cc(N2Cc3nc(-c4cnc(OC)c(OC)c4)ccc3C2=O)cn1`, the Ki is below 100 nM.

`COc1cc(-c2ccc3c(c2)CN(c2nncs2)C3=O)cnc1OC` had a Ki of 100 to 490 nM.

In turn, `COc1cc(-c2ccc3c(n2)CN(c2cnn(Cc4cccc5c4OCCCO5)c2)C3=O)cnc1OC` showed a Ki below 100 nM.

With `COc1cc(-c2cc(C)c3c(c2)CN(c2cnn([C@H](CO)C(F)(F)F)c2)C3=O)cnc1OC`, the Ki was below 100 nM.

The compound `COc1cc(-c2ccc3c(n2)CN(c2cnn([C@H](CO)C(F)(F)F)c2)C3=O)cnc1OC` displayed a Ki below 100 nM.

Compound `COc1cc(-c2ccc3c(n2)CN(c2ccc(N4CCNCC4)nc2)C3=O)cnc1OC` yielded a Ki of 100 to 490 nM.

Take `COCCOCn1cc(N2C(=O)c3ccc(-c4cnc(OC)c(OC)c4)nc3[C@H]2C)cn1`: the inhibition constant Ki was below 100 nM.

As for `COc1cc(-c2cc(C)c3c(n2)CN(c2ccc(C(C)(C)O)nc2)C3=O)cnc1OC`, the Ki is below 100 nM.

`Cc1cc(-c2cncc(OC(F)F)c2)nc2c1C(=O)N(c1ccnc(OCC(F)F)c1)C2` gave a Ki below 100 nM.

`Cc1cc(-c2cncc(C(=O)NCC3CC3)c2)nc2c1C(=O)N(c1cnn(CC(F)(F)F)c1)C2(C)C` registered a Ki below 100 nM.

For `CCNC(=O)c1cncc(-c2cc(C)c3c(n2)CN(c2ccn([C@H]4CCOC4)n2)C3=O)c1`, the Ki was in the range of 100 to 490 nM.

Compound `COc1cc(-c2ccc3c(n2)[C@H](C)N(c2ccn(C[C@H](C)O)n2)C3=O)cnc1OC` gave a Ki below 100 nM.

For `COc1cncc(-c2cc(C)c3c(n2)CN(c2ccn(CC(C)(C)F)n2)C3=O)c1`, the Ki was below 100 nM.

`Cc1cc(-c2cncc(S(=O)(=O)NC(C)C)c2)nc2c1C(=O)N(c1cnn(CC(F)(F)F)c1)C2(C)C` gave a Ki below 100 nM.

`COc1ncc(-c2cc(C)c3c(n2)CN(c2cnn(CC(F)(F)F)c2)C3=O)cc1OCC(F)F` returned a Ki below 100 nM.

Consider `Cc1cc(-c2cncc(OCC(F)F)c2)nc2c1C(=O)N(c1cnn(CC(F)(F)F)c1)[C@H]2C`, for which the Ki is below 100 nM.

`COc1cc(-c2cc(C)c3c(n2)CN(c2cnn(C(C)(C)C(N)=O)c2)C3=O)cnc1OC` displayed a Ki below 100 nM.

In the case of `C=CC1(O)c2nc(-c3cncc(OC)c3)cc(C)c2C(=O)N1c1cnn(CC(F)(F)F)c1` (stereo unspecified), the inhibition constant (Ki) is 100 to 490 nM.

Compound `COc1cc(-c2cc(C)c3c(n2)CN(c2cnn(CC(F)(F)F)c2)C3=O)cnc1C` came in with a Ki below 100 nM.

`CCOc1cc(-c2cc(C)c3c(c2)CN(c2cnn(CC#N)c2)C3=O)cnc1OCC` gave a Ki below 100 nM.

For the compound `CCn1cc(N2C(=O)c3ccc(-c4cnc(OC)c(OC)c4)nc3C2C)cn1` (stereo unspecified), the Ki was below 100 nM.

In turn, `COc1cc(-c2cc(Cl)c3c(c2)CN(c2cnn(CC#N)c2)C3=O)cnc1OC` registered a Ki below 100 nM.

For `C=C(F)Cn1cc(N2Cc3nc(-c4cncc(OC(F)F)c4)cc(C)c3C2=O)cn1`, the Ki was below 100 nM.

Take `CCc1cc(N2Cc3nc(-c4cnc(OC)c(OC)c4)ccc3C2=O)nn1CC`: the Ki is below 100 nM.

For the compound `COc1ccc(-c2cc(C)c3c(n2)CN(c2cnn(CC#N)c2)C3=O)c(OC)n1`, the Ki is below 100 nM.

With `COc1ncc(-c2cc(C)c3c(n2)CN(c2cc[nH]n2)C3=O)cc1OC(F)F`, the Ki is below 100 nM.

With `COc1cc(-c2ccc3c(c2)CN(c2cccc(C(C)C#N)c2)C3=O)cnc1OC` (stereo unspecified), the Ki fell in the range of 100 to 490 nM.

The compound `CCn1cc(N2C(=O)c3ccc(-c4cnc(OC)c(OC(F)F)c4)nc3[C@H]2C)cn1` yielded a Ki below 100 nM.

For `COc1cc(-c2ccc3c(n2)CN(c2ccc(N4CCC[C@@H]4CO)nc2)C3=O)cnc1OC`, the Ki is below 100 nM.

`COc1cc(-c2ccc3c(n2)CN(c2ccc(C)s2)C3=O)cnc1OC` had a Ki below 100 nM.

On to `COc1cc(-c2cc(C)c3c(n2)CN(c2cncc(CN(C)C)c2)C3=O)cnc1OC`, for which the Ki was below 100 nM.

Consider `CCOc1cncc(-c2cc(C)c3c(n2)[C@H](OC)N(c2cnn(CC(F)(F)F)c2)C3=O)c1`, for which the Ki was below 100 nM.

`CCOc1cncc(-c2cc(C)c3c(n2)CN(c2cnn(CC(F)F)c2)C3=O)c1` registered a Ki below 100 nM.

Regarding `COc1cc(-c2ccc3c(n2)CN(c2cn[nH]c2)C3=O)cnc1OC`, the Ki is below 100 nM.

Turning to `COCCCn1cc(N2Cc3cc(-c4cnc(OC)c(OC)c4)ccc3C2=O)cn1`, the Ki lay within 100 to 490 nM.

Compound `Cc1cc(-c2cncc(OCCF)c2)nc2c1C(=O)N(c1cnn(CC(F)(F)F)c1)C2` registered a Ki below 100 nM.

On to `COc1ncc(-c2cc(C)c3c(n2)CN(c2cnn(CC(F)(F)F)c2)C3=O)cc1OC1CCOCC1`, for which the Ki is below 100 nM.

For the compound `COc1cc(-c2ccc3c(n2)C(C)N(c2cncc(C(O)C(F)(F)F)c2)C3=O)cnc1OC` (stereo unspecified), the inhibitory constant (Ki) was below 100 nM.

Regarding `CCn1cc(N2Cc3nc(-c4cnc(OC)c(OC)c4)ccc3C2=O)cn1`, the Ki was below 100 nM.

As a reminder, the Ki is a measure of affinity in units of concentration, obtained from inhibition or displacement. A lower Ki goes with a stronger hold on the target.
